# Reference: patent US6472384B1, “Antimicrobial compounds” (Sankyo Company, Limited, priority 1998, dated 2002)
# Tests used:
# [1] = system: Mycobacterium smegmatis Strain SANK 75075; assay: Minimum inhibitory concentration against Mycobacterium smegmatis (agar plate dilution); assay type: cell-based; details: Mycolicibacterium smegmatis; Mycobacterium smegmatis SANK 75075; nutrient agar containing 5% glycerol; 37° C. for 18 hours
# Description: The minimum inhibitory concentration of preferred compounds of the invention against Mycobacterium smegmatis Strain SANK 75075 was determined in accordance with the process described below. The concentration of the compound to be tested was set at four stages by four-fold dilution starting from 1000 μg/ml (1000 μg/ml, 250 μg/ml, 62 μg/ml and 15 μg/ml). A 1 ml portion of the diluted sample of each stage was poured into a Petri dish (“Terumo Petri dish”, 90×20 mm). A nutrient agar medium (9 ml, product of Eiken Chemical) containing 5% glycerol was added and they were mixed to prepare a plate medium. A test microorganism Mycobacterium smegmatis SANK 75075 was precultured overnight at 37° C. on a trypto-soy broth (T.S.B) medium (product of Eiken Chemical) containing 5% glycerol. On the testing day, the microorganism solution was diluted 100-fold with T.S.B. and one loopful of the diluted culture was streaked onto the plate medium. After cultivation at 37° C. for 18 hours, the minimum concentration (MIC) of the test substance inhibiting the growth of the microorganism was determined.
# [2] = system: Mycobacterium avium Strain NIHJ1605; assay: Minimum inhibitory concentration against Mycobacterium avium (broth dilution); assay type: cell-based; details: NIHJ1605, 144 h; Mycobacterium avium NIHJ 1605; Middleblook 7H9 broth; aerobic culture at 37° C. for 6 days
# [3] = Solubility (physico-chemical properties); assay type: physicochemical
# [4] = system: Mycobacterium smegmatis SANK 75075; assay: Disk assay against Mycobacterium smegmatis; assay type: cell-based; details: Mycolicibacterium smegmatis, SANK75075, 40 μg of test substance per paper disk of 8 mm, read-out: inhibitory zone (circle) diameter
# Source text: Compound A-500359E, Compound A-500359F, the amide derivative of Compound A-500359F, Compound A-500359H, Compound A-500359J and Compound A-500359M-3 of the present invention thus available are novel compounds which have not been described in the literature. Their growth inhibitory activity against general gram positive bacteria or gram negative bacteria can be determined by the disk assay method using normal agar medium (product of Eiken Chemical) or heart infusion agar medium (product of Difco Laboratories). Growth inhibitory activity against Mycobacteria, gram positive bacteria belonging to the Actinonycetales, can be determined similarly on the above-described medium added further with glycerin.
# So-called disk assay was conducted using 40 μg of a test substance per paper disk of 8 mm.
# So-called Disk assay (“Experimental Agricultural Chemistry”. ed. by Agricultural Chemistry Class/Agriculture Dept./Tokyo Univ., 3rd edition, Volume II, published by Asakura Shoten in 1978) was conducted using 40 μg of a test substance per paper disk of 8 mm.
Compound,MIC [1],MIC [2],Solubility in chloroform [3],Solubility in methanol [3],Solubility in normal hexane [3],Solubility in water [3],zone of inhibition at 40 µg/disc [4]
"CO[C@H]1[C@@H](O)[C@H](n2ccc(=O)[nH]c2=O)O[C@@H]1[C@@H](O[C@H]1OC(C(=O)N[C@H]2CCCCNC2=O)=C[C@H](O)[C@@H]1O)C(N)=O [Capuramycin, capuramycin, reference compound]",12.5 µg/mL,8 µg/mL,,,,,
COC1C(O)C(n2ccc(=O)[nH]c2=O)OC1C(OC1OC(C(=O)O)=CC(O)C1O)C(N)=O (stereo not drawn) [A-500359F],,,insoluble,slightly soluble,insoluble,soluble,
C=CCC(NC(=O)C1=CC(O)C(O)C(OC(C(N)=O)C2OC(n3ccc(=O)[nH]c3=O)C(O)C2OC)O1)C(=O)O (stereo not drawn) [A-500359M-3],,,insoluble,soluble,insoluble,soluble,12 mm
NC(=O)C(OC1OC(C(=O)O)=CC(O)C1O)C1OC(n2ccc(=O)[nH]c2=O)C(O)C1O (stereo not drawn) [A-500359H],,,insoluble,slightly soluble,insoluble,soluble,
COC(=O)C1=CC(O)C(O)C(OC(C(N)=O)C2OC(n3ccc(=O)[nH]c3=O)C(O)C2OC)O1 (stereo not drawn) [A-500359E],,,insoluble,slightly soluble,insoluble,soluble,12 mm
NC(=O)C(OC1OC(C(=O)O)C(O)C(O)C1O)C1OC(n2ccc(=O)[nH]c2=O)C(O)C1O (stereo not drawn) [A-500359J],,,insoluble,slightly soluble,insoluble,soluble,

# Now from value to compound, other results behind:
MIC [1],MIC [2],Solubility in chloroform [3],Solubility in methanol [3],Solubility in normal hexane [3],Solubility in water [3],Compound,zone of inhibition at 40 µg/disc [4]
6.2 µg/mL,,,,,,CO[C@H]1[C@@H](OC(=O)CC(c2ccccc2)c2ccccc2)[C@H](n2ccc(=O)[nH]c2=O)O[C@@H]1[C@@H](O[C@H]1OC(C(=O)N[C@H]2CCC[C@@H](C)NC2=O)=C[C@H](O)[C@@H]1O)C(N)=O [Exemp. Compound No. 21],
6.2 µg/mL,,,,,,CCCCCCCCCC(=O)O[C@@H]1[C@H](OC)[C@@H]([C@@H](O[C@H]2OC(C(=O)N[C@H]3CCC[C@@H](C)NC3=O)=C[C@H](O)[C@@H]2O)C(N)=O)O[C@H]1n1ccc(=O)[nH]c1=O [Exemp. Compound No. 7],
3.1 µg/mL,,,,,,CCCCCCC(=O)O[C@@H]1[C@@H](O[C@@H](C(N)=O)[C@H]2O[C@@H](n3ccc(=O)[nH]c3=O)[C@H](O)[C@@H]2OC)OC(C(=O)N[C@H]2CCCCNC2=O)=C[C@@H]1OC(=O)CCCCCC [Exemp. Compound No. 280],
6.2 µg/mL,,,,,,CCCCCCCCCCCCCCCC(=O)O[C@@H]1[C@H](OC)[C@@H]([C@@H](O[C@H]2OC(C(=O)N[C@H]3CCCCNC3=O)=C[C@H](O)[C@@H]2O)C(N)=O)O[C@H]1n1ccc(=O)[nH]c1=O [Exemp. Compound No. 53],
3.1 µg/mL,,,,,,CCCCCCCCC(=O)O[C@@H]1[C@H](OC)[C@@H]([C@@H](O[C@H]2OC(C(=O)N[C@H]3CCC[C@@H](C)NC3=O)=C[C@H](O)[C@@H]2O)C(N)=O)O[C@H]1n1ccc(=O)[nH]c1=O [Exemp. Compound No. 6],
1.5 µg/mL,,,,,,CCCCCCCCCCCCCCCC(=O)O[C@H]1C=C(C(=O)N[C@H]2CCCCNC2=O)O[C@H](O[C@@H](C(N)=O)[C@H]2O[C@@H](n3ccc(=O)[nH]c3=O)[C@H](O)[C@@H]2OC)[C@H]1O [Exemp. Compound No. 135],
6.2 µg/mL,,,,,,CCCCCCCCCCCCCCCC(=O)O[C@@H]1[C@H](OC)[C@@H]([C@@H](O[C@H]2OC(C(=O)N[C@H]3CCC[C@@H](C)NC3=O)=C[C@H](O)[C@@H]2O)C(N)=O)O[C@H]1n1ccc(=O)[nH]c1=O [Exemp. Compound No. 11],
,,insoluble,slightly soluble,insoluble,soluble,COC1C(O)C(n2ccc(=O)[nH]c2=O)OC1C(OC1OC(C(N)=O)=CC(O)C1O)C(N)=O (stereo not drawn) [amide derivative of compound A-500359F],12 mm
